Source: ChEMBL document CHEMBL1134848, “Synthesis and biological evaluation of a spongistatin AB-spiroketal analogue” (2002)

How the values were obtained:
Format in all cases: functional
DU-145 = experiment: In vitro growth inhibitory activity on human Prostate (DU-145) cell line
NCI-H460 = experiment: In vitro growth inhibitory activity on human Lung-NSC (NCI-H460) cell line
SF-268 = experiment: In vitro growth inhibitory activity on human CNS Gliobl (SF268) cell line
MCF7 = experiment: In vitro growth inhibitory activity on human Breast adn (MCF-7) cell line
BXPC-3 = experiment: In vitro growth inhibitory activity on human Pancreas-a (BXPC-3) cell line
KM-20L2 = experiment: In vitro growth inhibitory activity on human Colon (KM20L2) cell line

Measured: GI50

CC(=O)OC1CC(CCO)OC2(C1)CC(C)(O)CC(CO)O2 (single isomer, unassigned; (-))
> 10 µg/mL: all assays above

OCC1CCCC2(CCCC(CO)O2)O1 (single isomer, unassigned; (-))
> 10 µg/mL: all assays above
